We go through 69 compounds from US20060252807A1, “Novel ortho-terphenyl inhibitors of p38 kinase and methods of treating inflammatory disorders” (Kalypsys, Inc., priority 2005, published 2006).

Molecules are shown by their SMILES.

The target in the assay is T1, active p38 alpha enzyme (Upstate Biotechnology) (Homo sapiens, UniProt Q16539).
T1 construct: purchased Upstate Biotechnology
T1 sequence (Q16539 whole entry): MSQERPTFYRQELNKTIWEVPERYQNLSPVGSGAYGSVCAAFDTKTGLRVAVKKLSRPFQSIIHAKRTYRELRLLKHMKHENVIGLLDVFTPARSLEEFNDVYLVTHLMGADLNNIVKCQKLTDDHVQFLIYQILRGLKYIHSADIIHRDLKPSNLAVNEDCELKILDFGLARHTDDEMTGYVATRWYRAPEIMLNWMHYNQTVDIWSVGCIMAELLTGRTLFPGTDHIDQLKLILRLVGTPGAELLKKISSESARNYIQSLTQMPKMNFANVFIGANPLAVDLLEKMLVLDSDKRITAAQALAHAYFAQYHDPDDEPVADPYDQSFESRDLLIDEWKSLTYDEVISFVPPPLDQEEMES
In words: p38α biochemical assay (ATP turnover, luminescent detection, Cambrex PKlight). The note with it: p38α kinase; Table 1 Biological Activity. In short, it runs like this:
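Luminescent PKlight readout of total ATP consumption follows a 2 h, 30C kinase reaction. Enzyme and MapkapK2 substrate run with 1.4 uM ATP (final) in buffer containing Mg2+, Ca2+, chelators, glycerol, reducing agent and BSA; test compounds added by pintool from DMSO.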
Consider `Cc1nc(-c2ccc(F)cc2)c(-c2nc(C(=O)N3CCCC3CO)cs2)s1` (stereo not drawn) [Example 1850], for which the IC50 is ≤ 1000 nM.

With `Cc1nc(-c2ccc(F)cc2)c(-c2nc(C(=O)N3CCC[C@@H]3CO)cs2)s1` [Example 1851], the IC50 is > 1000 nM.

For the compound `CCCCN(CC)C(=O)c1csc(-c2sc(C)nc2-c2ccc(F)cc2)n1` [Example 1852], the IC50 was > 1000 nM.

As for `CCCN(CCC)C(=O)c1csc(-c2sc(C)nc2-c2ccc(F)cc2)n1` [Example 1853], the IC50 is > 1000 nM.

With `Cc1nc(-c2ccc(F)cc2)c(-c2nc(C(=O)N3CCSCC3)cs2)s1` [Example 1854], the IC50 is > 1000 nM.

As for `Cc1nc(-c2ccc(F)cc2)c(-c2nc(C(=O)N(CCO)CCO)cs2)s1` [Example 1855], the IC50 is > 1000 nM.

For the compound `Cc1nc(-c2ccc(F)cc2)c(-c2nc(C(=O)N3CC(C)CC(C)C3)cs2)s1` (stereo not drawn) [Example 1856], the IC50 is > 1000 nM.

With `Cc1nc(-c2ccc(F)cc2)c(-c2nc(C(=O)N(C)C3CCCCC3)cs2)s1` [Example 1857], the IC50 is > 1000 nM.

As for `Cc1nc(-c2ccc(F)cc2)c(-c2nc(C(=O)N3C(C)CCCC3C)cs2)s1` (stereo not drawn) [Example 1858], the IC50 is > 1000 nM.

Regarding `Cc1nc(-c2ccc(F)cc2)c(-c2nc(C(=O)N3CCC(N(C)C)C3)cs2)s1` (stereo not drawn) [Example 1859], the IC50 was > 1000 nM.

For the compound `Cc1nc(-c2ccc(F)cc2)c(-c2nc(C(=O)N3CC(C)NC(C)C3)cs2)s1` (stereo not drawn) [Example 1860], the IC50 was > 1000 nM.

Take `Cc1nc(-c2ccc(F)cc2)c(-c2nc(C(=O)N3CCCC(CO)C3)cs2)s1` (stereo not drawn) [Example 1861]: the half-inhibitory concentration (IC50) is > 1000 nM.

On to `COC[C@@H]1CCCN1C(=O)c1csc(-c2sc(C)nc2-c2ccc(F)cc2)n1` [Example 1862], for which the IC50 was ≤ 1000 nM.

In the case of `Cc1nc(-c2ccc(F)cc2)c(-c2nc(C(=O)N3CC(C)OC(C)C3)cs2)s1` (stereo not drawn) [Example 1863], the IC50 was > 1000 nM.

Take `Cc1nc(-c2ccc(F)cc2)c(-c2nc(C(=O)N3CCCCC3CO)cs2)s1` (stereo not drawn) [Example 1864]: the IC50 was > 1000 nM.

On to `CCN(CCCCO)C(=O)c1csc(-c2sc(C)nc2-c2ccc(F)cc2)n1` [Example 1865], for which the IC50 was > 1000 nM.

Take `Cc1nc(-c2ccc(F)cc2)c(-c2nc(C(=O)N3Cc4ccccc4C3)cs2)s1` [Example 1866]: the IC50 was > 1000 nM.

`Cc1nc(-c2ccc(F)cc2)c(-c2nc(C(=O)N(C)Cc3ccccc3)cs2)s1` [Example 1867]: the IC50 is > 1000 nM.

As to `CCN(C(=O)c1csc(-c2sc(C)nc2-c2ccc(F)cc2)n1)C1CCCCC1` [Example 1868], the IC50 is > 1000 nM.

Regarding `Cc1nc(-c2ccc(F)cc2)c(-c2nc(C(=O)N3CCC(C(N)=O)CC3)cs2)s1` [Example 1869], the IC50 is > 1000 nM.

As for `CC(=O)N[C@H]1CCN(C(=O)c2csc(-c3sc(C)nc3-c3ccc(F)cc3)n2)C1` [Example 1870], the IC50 was > 1000 nM.

With `Cc1nc(-c2ccc(F)cc2)c(-c2nc(C(=O)N3CCCC(C(N)=O)C3)cs2)s1` (stereo not drawn) [Example 1872], the IC50 is > 1000 nM.

`Cc1nc(-c2ccc(F)cc2)c(-c2nc(C(=O)N3CCCCC3CCO)cs2)s1` (stereo not drawn) [Example 1873]: the IC50 is > 1000 nM.

For `Cc1nc(-c2ccc(F)cc2)c(-c2nc(C(=O)N3CCc4ccccc4C3)cs2)s1` [Example 1874], the IC50 is > 1000 nM.

`CCN(Cc1ccccc1)C(=O)c1csc(-c2sc(C)nc2-c2ccc(F)cc2)n1` [Example 1875]: the IC50 is > 1000 nM.

As for `Cc1nc(-c2ccc(F)cc2)c(-c2nc(C(=O)N(C)CCc3ccccc3)cs2)s1` [Example 1877], the IC50 is > 1000 nM.

For `Cc1nc(-c2ccc(F)cc2)c(-c2nc(C(=O)N(C)CCc3ccccn3)cs2)s1` [Example 1878], the IC50 is > 1000 nM.

On to `Cc1nc(-c2ccc(F)cc2)c(-c2nc(C(=O)N3CCCC4CCCCC43)cs2)s1` (stereo not drawn) [Example 1880], for which the IC50 is ≤ 1000 nM.

Consider `C=CCN(C(=O)c1csc(-c2sc(C)nc2-c2ccc(F)cc2)n1)C1CCCCC1` [Example 1881], for which the IC50 was > 1000 nM.

Consider `COC(=O)C1CCN(C(=O)c2csc(-c3sc(C)nc3-c3ccc(F)cc3)n2)CC1` [Example 1882], for which the IC50 was > 1000 nM.

In the case of `Cc1nc(-c2ccc(F)cc2)c(-c2nc(C(=O)N(Cc3ccccc3)C(C)C)cs2)s1` [Example 1883], the IC50 is > 1000 nM.

In the case of `Cc1nc(-c2ccc(F)cc2)c(-c2nc(C(=O)N(CCO)Cc3ccccc3)cs2)s1` [Example 1884], the IC50 was > 1000 nM.

For `Cc1nc(-c2ccc(F)cc2)c(-c2nc(C(=O)N(C)CC(O)c3ccccc3)cs2)s1` (stereo not drawn) [Example 1885], the IC50 is > 1000 nM.

`Cc1nc(-c2ccc(F)cc2)c(-c2nc(C(=O)N3CCC(O)(O)CC3)cs2)s1` [Example 1886]: the IC50 was > 1000 nM.

Turning to `CCOC(=O)C1CCN(C(=O)c2csc(-c3sc(C)nc3-c3ccc(F)cc3)n2)CC1` [Example 1887], the IC50 is > 1000 nM.

Regarding `CCOC(=O)C1CCCN(C(=O)c2csc(-c3sc(C)nc3-c3ccc(F)cc3)n2)C1` (stereo not drawn) [Example 1888], the IC50 is > 1000 nM.

On to `CCOC(=O)N1CCN(C(=O)c2csc(-c3sc(C)nc3-c3ccc(F)cc3)n2)CC1` [Example 1889], for which the IC50 is > 1000 nM.

For the compound `Cc1nc(-c2ccc(F)cc2)c(-c2nc(C(=O)N(CCC#N)Cc3cccnc3)cs2)s1` [Example 1891], the IC50 was > 1000 nM.

For the compound `Cc1nc(-c2ccc(F)cc2)c(-c2nc(C(=O)N3CCN(c4ccccc4)CC3)cs2)s1` [Example 1892], the IC50 is > 1000 nM.

`Cc1nc(-c2ccc(F)cc2)c(-c2nc(C(=O)N3CCN(c4ccccn4)CC3)cs2)s1` [Example 1893]: the IC50 is > 1000 nM.

Take `CCCCN(Cc1ccccc1)C(=O)c1csc(-c2sc(C)nc2-c2ccc(F)cc2)n1` [Example 1894]: the half-maximal inhibitory concentration (IC50) is > 1000 nM.

As for `Cc1nc(-c2ccc(F)cc2)c(-c2nc(C(=O)N(CCO)[C@H](C)c3ccccc3)cs2)s1` [Example 1895], the half-inhibitory concentration (IC50) was > 1000 nM.

As for `Cc1nc(-c2ccc(F)cc2)c(-c2nc(C(=O)N(CCCO)Cc3ccccn3)cs2)s1` [Example 1896], the IC50 is > 1000 nM.

With `Cc1nc(-c2ccc(F)cc2)c(-c2nc(C(=O)N(C)CC(O)c3ccc(O)cc3)cs2)s1` (stereo not drawn) [Example 1897], the IC50 is > 1000 nM.

For `Cc1nc(-c2ccc(F)cc2)c(-c2nc(C(=O)N3CCN(C4CCCCC4)CC3)cs2)s1` [Example 1898], the IC50 is > 1000 nM.

Take `Cc1nc(-c2ccc(F)cc2)c(-c2nc(C(=O)N3CCC(Cc4ccccc4)CC3)cs2)s1` [Example 1899]: the IC50 is > 1000 nM.

Take `Cc1nc(-c2ccc(F)cc2)c(-c2nc(C(=O)N3CCN(Cc4ccccc4)CC3)cs2)s1` [Example 1900]: the IC50 was > 1000 nM.

Regarding `Cc1nc(-c2ccc(F)cc2)c(-c2nc(C(=O)N3CCCN(Cc4ccccc4)CC3)cs2)s1` [Example 1901], the IC50 was > 1000 nM.

As to `Cc1nc(-c2ccc(F)cc2)c(-c2nc(C(=O)N3CCN(c4ccc(O)cc4)CC3)cs2)s1` [Example 1902], the IC50 is > 1000 nM.

For the compound `Cc1nc(-c2ccc(F)cc2)c(-c2nc(C(=O)N(CCN(C)C)Cc3ccccc3)cs2)s1` [Example 1903], the IC50 was > 1000 nM.

For the compound `Cc1nc(-c2ccc(F)cc2)c(-c2nc(C(=O)N3CCN(c4ccccc4F)CC3)cs2)s1` [Example 1904], the IC50 is > 1000 nM.

As for `Cc1nc(-c2ccc(F)cc2)c(-c2nc(C(=O)N3CCN(c4ccc(F)cc4)CC3)cs2)s1` [Example 1905], the IC50 is > 1000 nM.

Turning to `Cc1nc(-c2ccc(F)cc2)c(-c2nc(C(=O)N3CCN(CC4CCCCC4)CC3)cs2)s1` [Example 1906], the IC50 was > 1000 nM.

Consider `Cc1nc(-c2ccc(F)cc2)c(-c2nc(C(=O)N(C)C[C@H](O)c3ccc(O)c(O)c3)cs2)s1` [Example 1907], for which the IC50 was > 1000 nM.

For `CCOC(=O)CC1C(=O)NCCN1C(=O)c1csc(-c2sc(C)nc2-c2ccc(F)cc2)n1` (stereo not drawn) [Example 1908], the IC50 was ≤ 1000 nM.

As for `Cc1nc(-c2ccc(F)cc2)c(-c2nc(C(=O)N3CCN(C(=O)OC(C)(C)C)CC3)cs2)s1` [Example 1909], the IC50 is > 1000 nM.

For the compound `Cc1nc(-c2ccc(F)cc2)c(-c2nc(C(=O)N3CCC(NC(=O)OC(C)(C)C)C3)cs2)s1` (stereo not drawn) [Example 1910], the IC50 was > 1000 nM.

With `Cc1nc(-c2ccc(F)cc2)c(-c2nc(C(=O)N3CCN(c4ccccc4C#N)CC3)cs2)s1` [Example 1911], the IC50 was ≤ 1000 nM.

Take `Cc1nc(-c2ccc(F)cc2)c(-c2nc(C(=O)N3CCN(c4ccc(C#N)cn4)CC3)cs2)s1` [Example 1912]: the IC50 was > 1000 nM.

For `Cc1nc(-c2ccc(F)cc2)c(-c2nc(C(=O)N3CCN(c4cccc(C)c4C)CC3)cs2)s1` [Example 1913], the IC50 was > 1000 nM.

In the case of `Cc1cccc(N2CCN(C(=O)c3csc(-c4sc(C)nc4-c4ccc(F)cc4)n3)CC2C)c1` (stereo not drawn) [Example 1915], the IC50 is ≤ 1000 nM.

On to `Cc1nc(-c2ccc(F)cc2)c(-c2nc(C(=O)N3CCN(CCc4ccccc4)CC3)cs2)s1` [Example 1916], for which the IC50 is > 1000 nM.

In the case of `Cc1nc(-c2ccc(F)cc2)c(-c2nc(C(=O)N3CCN(c4ccc(C)c(C)c4)CC3)cs2)s1` [Example 1917], the IC50 was > 1000 nM.

Regarding `Cc1ccc(N2CCN(C(=O)c3csc(-c4sc(C)nc4-c4ccc(F)cc4)n3)CC2)c(C)c1` [Example 1918], the IC50 is > 1000 nM.

Take `Cc1ccc(C)c(N2CCN(C(=O)c3csc(-c4sc(C)nc4-c4ccc(F)cc4)n3)CC2)c1` [Example 1919]: the IC50 is > 1000 nM.

Turning to `COc1ccc(N2CCN(C(=O)c3csc(-c4sc(C)nc4-c4ccc(F)cc4)n3)CC2)cc1` [Example 1920], the IC50 was > 1000 nM.

On to `COc1ccccc1N1CCN(C(=O)c2csc(-c3sc(C)nc3-c3ccc(F)cc3)n2)CC1` [Example 1921], for which the IC50 is > 1000 nM.

Consider `COc1cccc(N2CCN(C(=O)c3csc(-c4sc(C)nc4-c4ccc(F)cc4)n3)CC2)c1` [Example 1922], for which the IC50 was > 1000 nM.

Turning to `COc1ccc(CCN(C)C(=O)c2csc(-c3sc(C)nc3-c3ccc(F)cc3)n2)cc1OC` [Example 1923], the IC50 was > 1000 nM.
